Among the test systems are CCRF-CEM leukemia; EKVX NSCLC; HCT-15 colon; NCI-H460 lung; OVCAR-4 ovarian; SF-295 CNS; SK-OV-3 ovarian; SNB-75 CNS; U251 CNS; UACC-62 melanoma.
What all share (test): inhibition of tumour cell growth, NCI panel, 48 h

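Compound exposure: 48 hours, 5 concentrations, 96-well plates. The concentration for 50% growth inhibition is given as GI50. Definition used: TGI = concentration required for complete inhibition of growth.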 A value given as a limit tells only on which side of the number the result lay.

Consider `COC(=O)[C@]12CC=C3O[C@@H]4OC5(CCCCC5)O[C@@H]4C3[C@@H]1C(=O)CCC2=O` (stereo not given in full), for which the TGI in the test on CCRF-CEM leukemia, in the test on EKVX NSCLC, with HCT-15 colon, in the test on NCI-H460 lung, with OVCAR-4 ovarian and in the test on SF-295 CNS was > 100 µM each time. The TGI with SK-OV-3 ovarian, in the test on SNB-75 CNS, in the test with U251 CNS and in the test on UACC-62 melanoma was > 100 µM each time.

Take `Cc1ccc2c(c1)C(C)Cc1c(Cl)ncnc1N2C` (stereo not given): the GI50 with CCRF-CEM leukemia was 3.82 µM; in the test on EKVX NSCLC, 2.33 µM; in the test on HCT-15 colon it was 3.08 µM; in the test on NCI-H460 lung it was 3.66 µM; with OVCAR-4 ovarian, 3.06 µM; in the test on SF-295 CNS, 3.12 µM. The GI50 with SK-OV-3 ovarian is 3.75 µM; in the test with SNB-75 CNS, 0.394 µM; in the test with U251 CNS it was 4.43 µM; in the test with UACC-62 melanoma, 3.72 µM. Also, the TGI with CCRF-CEM leukemia was > 100 µM; in the test on EKVX NSCLC, 26.3 µM; with HCT-15 colon, 14.1 µM; in the test with NCI-H460 lung, 91 µM; in the test with OVCAR-4 ovarian it was > 100 µM; in the test with SF-295 CNS, 25.2 µM. The TGI was determined as 31 µM in the test on SK-OV-3 ovarian, 22.5 µM in the test on SNB-75 CNS, 67.9 µM with U251 CNS and 21.8 µM with UACC-62 melanoma.

Regarding `COC(=O)C1CCCN1C(=O)[C@@H]1CCCN1C(=O)[C@H](Cc1c[nH]c2ccccc12)NC(=S)Nc1cc(C(F)(F)F)cc(C(F)(F)F)c1` (stereo not given in full), the GI50 in the test with CCRF-CEM leukemia is 2.75 µM; with EKVX NSCLC, 1.91 µM; with HCT-15 colon, 3.41 µM; with NCI-H460 lung it was 1.94 µM; in the test with OVCAR-4 ovarian, 3.18 µM; in the test with SF-295 CNS it was 1.77 µM. The GI50 with SK-OV-3 ovarian is 2.95 µM; in the test with SNB-75 CNS, 2.48 µM; in the test with U251 CNS, 1.67 µM; in the test on UACC-62 melanoma, 1.7 µM. Further, the TGI in the test on CCRF-CEM leukemia is 8.55 µM; with EKVX NSCLC, 7.83 µM; with HCT-15 colon, 12.8 µM; in the test on NCI-H460 lung, 3.79 µM; in the test on OVCAR-4 ovarian it was 11.2 µM; in the test with SF-295 CNS, 4.08 µM. For the same compound, the TGI in the test with SK-OV-3 ovarian was found to be 11.4 µM; with SNB-75 CNS, 8.92 µM; in the test with U251 CNS it was 3.81 µM; with UACC-62 melanoma, 4.08 µM.

As for `Clc1ccc2nnnn2n1`, the GI50 was 3.74 µM in the test with CCRF-CEM leukemia; 18 µM with EKVX NSCLC; 4.01 µM in the test with HCT-15 colon; 3.26 µM with NCI-H460 lung; 5.21 µM with OVCAR-4 ovarian; 4.05 µM with SF-295 CNS. The GI50 was 10.5 µM with SK-OV-3 ovarian, 4.07 µM in the test on SNB-75 CNS, 3.97 µM in the test with U251 CNS and 2.77 µM in the test on UACC-62 melanoma. Further, the TGI with CCRF-CEM leukemia was 29.8 µM; in the test on EKVX NSCLC it was 62.3 µM; with HCT-15 colon, > 100 µM; with NCI-H460 lung, 12 µM; in the test on OVCAR-4 ovarian, 17.7 µM; in the test with SF-295 CNS, > 100 µM. Moreover, the TGI is 92.9 µM in the test on SK-OV-3 ovarian, > 100 µM in the test with SNB-75 CNS, 22.7 µM in the test on U251 CNS and 27.5 µM in the test on UACC-62 melanoma.

For `Cc1cc(Cc2cc(C)cc(C(C)(C)C)c2O)c(O)c(Cc2cc(C)cc(C(C)(C)C)c2O)c1`, the TGI in the test on CCRF-CEM leukemia came out at 8.31 µM; with EKVX NSCLC it was 9 µM; with HCT-15 colon, 11.3 µM; in the test with NCI-H460 lung it was 4.22 µM; in the test on OVCAR-4 ovarian, 11.7 µM; with SF-295 CNS it was 10.1 µM. Further, the TGI was 10.9 µM in the test with SK-OV-3 ovarian, 14.2 µM in the test with SNB-75 CNS, 10.3 µM in the test with U251 CNS and 4.53 µM with UACC-62 melanoma.

As to `CN(C)CC1C(=O)O[C@H]2[C@H]1CC/C(COC(=O)c1cc3ccccc3[nH]1)=C\CC[C@@]1(C)O[C@@H]21` (stereo not given in full), the GI50 with CCRF-CEM leukemia was 0.432 µM; in the test on EKVX NSCLC, 3.16 µM; with HCT-15 colon, 0.629 µM; in the test on NCI-H460 lung, 7.35 µM; with OVCAR-4 ovarian, 1.57 µM; in the test on SF-295 CNS it was 4.87 µM. Also, the GI50 is 19.9 µM with SK-OV-3 ovarian, 2.18 µM with SNB-75 CNS, 2.3 µM with U251 CNS and 1.72 µM in the test with UACC-62 melanoma. Also, the TGI in the test with CCRF-CEM leukemia is 15.9 µM; in the test on EKVX NSCLC, 12.5 µM; with HCT-15 colon, 2.28 µM; in the test with NCI-H460 lung it was 25.6 µM; in the test with OVCAR-4 ovarian it was 3.68 µM; with SF-295 CNS it was 18.5 µM. Further, the TGI with SK-OV-3 ovarian was 39.3 µM; in the test on SNB-75 CNS, 10.4 µM; with U251 CNS, 5.71 µM; in the test on UACC-62 melanoma, 3.89 µM.

Take `O=c1[nH]c(=O)c2cc(C3CC(O)C(CO)O3)ccc2[nH]1` (stereo not given): the GI50 was > 100 µM in the test with CCRF-CEM leukemia; > 100 µM in the test on EKVX NSCLC; 93.3 µM in the test on HCT-15 colon; > 100 µM with NCI-H460 lung; 43.5 µM with OVCAR-4 ovarian; > 100 µM in the test on SF-295 CNS. The GI50 with SK-OV-3 ovarian was > 100 µM; in the test with SNB-75 CNS it was 26.8 µM; with U251 CNS, > 100 µM; in the test on UACC-62 melanoma, > 100 µM. The TGI in the test on CCRF-CEM leukemia, in the test with EKVX NSCLC, in the test with HCT-15 colon, in the test with NCI-H460 lung, with OVCAR-4 ovarian and in the test on SF-295 CNS was > 100 µM in each case. Further, the TGI in the test with SK-OV-3 ovarian, in the test with SNB-75 CNS, with U251 CNS and in the test on UACC-62 melanoma was > 100 µM in each case.

Turning to `CCCCCCCCCCCCOC1C(C(COC2OC(C3COC(C)(C)O3)C3OC(C)(C)OC23)NC(=O)NS(=O)(=O)c2ccccc2)OC2OC(C)(C)OC21` (stereo not given), the GI50 in the test with CCRF-CEM leukemia was 2.34 µM; in the test on EKVX NSCLC, 3.89 µM; with HCT-15 colon, 3.68 µM; in the test with NCI-H460 lung it was 3.04 µM; with OVCAR-4 ovarian, 8.23 µM; in the test on SF-295 CNS, 3.52 µM. The GI50 in the test with SK-OV-3 ovarian is 13.8 µM; with SNB-75 CNS it was 11.4 µM; in the test on U251 CNS it was 3.14 µM; with UACC-62 melanoma it was 3.27 µM. The TGI with CCRF-CEM leukemia is 7.49 µM; in the test on EKVX NSCLC, 16.8 µM; in the test on HCT-15 colon, 15 µM; in the test with NCI-H460 lung it was 12.6 µM; in the test on OVCAR-4 ovarian, 66.5 µM; in the test on SF-295 CNS, 16.6 µM. For the same compound, the TGI was determined as 28.1 µM with SK-OV-3 ovarian, 31.6 µM in the test on SNB-75 CNS, 9.77 µM with U251 CNS and 13.7 µM in the test on UACC-62 melanoma.

As for `C=C1C(=O)O[C@H]2[C@H](OC(C)=O)[C@@H](C)CCC/C(C)=C/CC[C@@]3(C)O[C@@H]3C[C@@H]12`, the TGI with CCRF-CEM leukemia came out at 3.76 µM; with EKVX NSCLC, 8.79 µM; in the test with HCT-15 colon, 10.1 µM; in the test on NCI-H460 lung, 19.7 µM; with OVCAR-4 ovarian it was 8.76 µM; in the test with SF-295 CNS it was 28.5 µM. For the same compound, the TGI came out at 30.5 µM in the test on SK-OV-3 ovarian, 21.2 µM in the test on SNB-75 CNS, 21.7 µM with U251 CNS and 9.43 µM in the test on UACC-62 melanoma.

Take `COc1cc(/C=C/C(=O)c2c(C)nc3ccccc3c2/C=C/c2ccc(C)cc2)cc(OC)c1OC`: the GI50 is 2.83 µM in the test with CCRF-CEM leukemia; 2.32 µM with EKVX NSCLC; 1.53 µM in the test with HCT-15 colon; 2.06 µM with NCI-H460 lung; 5.62 µM in the test with OVCAR-4 ovarian; 2.19 µM with SF-295 CNS. The GI50 with SK-OV-3 ovarian was 11 µM; in the test on SNB-75 CNS, 1.47 µM; in the test with U251 CNS it was 1.73 µM; with UACC-62 melanoma, 1.6 µM. Moreover, the TGI in the test with CCRF-CEM leukemia is > 100 µM; with EKVX NSCLC, 6.32 µM; in the test with HCT-15 colon, 3.62 µM; in the test with NCI-H460 lung, 5.09 µM; in the test on OVCAR-4 ovarian, 52.9 µM; in the test on SF-295 CNS it was 5.4 µM. Besides, the TGI in the test on SK-OV-3 ovarian is > 100 µM; in the test with SNB-75 CNS, 4.82 µM; in the test on U251 CNS it was 3.57 µM; with UACC-62 melanoma it was 3.08 µM.

Regarding `FC(F)(F)c1ccc(C#Cc2ccccc2C#Cc2ccccc2)cc1`, the GI50 in the test with CCRF-CEM leukemia was 26 µM; in the test with EKVX NSCLC it was 33.6 µM; in the test on HCT-15 colon it was 35.1 µM; in the test on NCI-H460 lung it was 41.1 µM; in the test on OVCAR-4 ovarian, 57.5 µM; with SF-295 CNS, 30.3 µM. Further, the GI50 in the test with SK-OV-3 ovarian was 32.6 µM; in the test with SNB-75 CNS it was > 100 µM; in the test on U251 CNS it was 27.6 µM; in the test with UACC-62 melanoma, 92.9 µM. Besides, the TGI in the test with CCRF-CEM leukemia is 61.6 µM; with EKVX NSCLC it was > 100 µM; in the test with HCT-15 colon, > 100 µM; in the test with NCI-H460 lung, > 100 µM; in the test on OVCAR-4 ovarian it was > 100 µM; with SF-295 CNS, > 100 µM. In addition, the TGI in the test on SK-OV-3 ovarian is > 100 µM; in the test with SNB-75 CNS, > 100 µM; in the test on U251 CNS it was 81.2 µM; in the test on UACC-62 melanoma, > 100 µM.

For `Nc1c([N+](=O)[O-])cc2c3c(cccc13)CC2`, the TGI with CCRF-CEM leukemia, in the test with EKVX NSCLC, in the test with HCT-15 colon, in the test on NCI-H460 lung, in the test with OVCAR-4 ovarian and with SF-295 CNS was > 100 µM throughout. Moreover, the TGI in the test on SK-OV-3 ovarian, in the test with SNB-75 CNS, in the test on U251 CNS and with UACC-62 melanoma was > 100 µM each time.

The values above are taken from PubChem BioAssay (NCI).
